Data published in PMC10005301, “Prediction of the n-Octanol/Water Partition Coefficients of Basic Compounds Using Multi-Parameter QSRR Models Based on IS-RPLC Retention Behavior in a Wide pH Range” (Molecules, 2023).
Read-outs that look alike come from different tables or passages of the source.

How the values were obtained:
[1] = for logDpH 7.0: pH 7; for logDpH 8.0: pH 8; for logDpH 9.0: pH 9; for logDpH 10.0: pH 10
From the text: (§1) The retention behavior of the 42 basic compounds (Table 1) were investigated at different ratios of methanol (φ = 0.7–0.1, the interval was 0.1 or 0.05 based on the retention of the investigated solutes). The logk values were plotted versus φ for each solute at pH 7.0, pH 8.0, pH 9.0, and pH 10.0. […] The logD values of the model compounds and verification compounds calculated using Equation (S3) based on the logP and pH values are also listed in Table 1.
(§2) At each pH, the retention time (tR) of every analyte was determined for at least four different volume fractions (φ) of methanol. All the tR values of the solutes were obtained by averaging the results of at least three independent injections. The tR value was corrected using dual-point retention time correction (DP-RTC). For a detailed description of the process, refer to our previous work. For the different hydrophobicities of the studied compounds, benzene, toluene, and benzyl alcohol were used as anchor compounds in the DP-RTC method. The dead time t0 was determined using uracil. For each solute, the logarithm of k was plotted against φ, and logkw was obtained using the Equation (S1). The logD values of the model compounds were calculated using Equation (S3), and the logD–logkw models were established with Equation (S4). The statistical analysis for the regression model was accomplished using Origin 9.4. […]
(§3) Where, k is the capacity factor, φ is the volume fraction of organic modifier in the mobile phase, and S is the constant obtained by linear regression in the equations. […]
and logkw, which is usually called Collander equation [25 ]. lo g lo g wPm k n= + (S2)
Where, m and n are constants obtained by linear regression.
The Eqs. (S1) and (S2) are the basis for the determination of logP by revered- phase liquid chromatography (RPLC) method. For dissociative solutes, it has been confirmed by many studies that the logD calibrated from logP has a better linear correlation with logkw than logP.
For basic compounds, the logD value can be calibrated from Eq. (S3), and the Collander equation can be rewritten into Eq. (S4). log log( )D − −+ −+= + ++P […]
lo g ' lo g 'Dm k n= +w (S4)
Where, pKa1, pKa2 , … p Kan are the dissociation constants of basic compounds of corresponding acids in the mobile phase, pH is the pH value of mobile phase, m′ and n′ are fitting parameters. Han et al. pointed out that although mobile phase pH and pKa of solutes will change along with the varied organic modifier fraction, the difference between a couple of relevant pH and pKa is a constant. Therefore, the used pH and pKa in this paper were both the values obtained at 100% aqueous phase. […]

[2] = IS-RPLC retention on silica-based C18 column, logkw by linear solvent strength model; format: physicochemical
Method: as §1
The column temperature was set at 30 °C. Methanol and 20 mmol/L ammonium phosphate buffer (pH = 7.0, 8.0, 9.0, 10.0) was used as the mobile phase to perform isocratic elution. The injection volume was 10 µL and the detection wavelength for each eluted compound was set at its optimum absorption wavelength.
as §2, §3
The Eqs. (S1) and (S2) are the basis for the determination of logP by revered- phase liquid chromatography (RPLC) method. For dissociative solutes, it has been confirmed by many studies that the logD calibrated from logP has a better linear correlation with logkw than logP. […]

[3] = set-up: method as in UFZ-LSER database; conditions: hydrogen bonding parameter B; ref UFZ-LSER database; cited from earlier work
[4] = ref database module of ACD/Labs software, cited from earlier work
[5] = ref database module of ACD/Labs software, cited from earlier work; for pKa: Table 4, verification compounds
[6] = logD determined by multi-parameter QSRR models from IS-RPLC logkw; conditions: IS-RPLC retention (logkw)
Method: Multi-parameter QSRR models including logD, logkw, ne, A, and B were established using the multiple linear regression (MLR) method. In the process of linear fitting, ne, A, B, and their different combinations were introduced to optimize the models.
The logD values reported in the literature for these four compounds were calculated using Equation (S3) with corresponding pKa, logP, and pH values.
At each pH, the retention time (tR) of every analyte was determined for at least four different volume fractions (φ) of methanol. All the tR values of the solutes were obtained by averaging the results of at least three independent injections. The tR value was corrected using dual-point retention time correction (DP-RTC). For a detailed description of the process, refer to our previous work. For the different hydrophobicities of the studied compounds, benzene, toluene, and benzyl alcohol were used as anchor compounds in the DP-RTC method. The dead time t0 was determined using uracil. For each solute, the logarithm of k was plotted against φ, and logkw was obtained using the Equation (S1). The logD values of the model compounds were calculated using Equation (S3), and the logD–logkw models were established with Equation (S4). The statistical analysis for the regression model was accomplished using Origin 9.4.

[7] = pH 7.0, methanol/20 mmol/L ammonium phosphate buffer, Welch Xtimate C18, 30 °C, 100% aqueous extrapolation
[8] = pH 8.0, methanol/20 mmol/L ammonium phosphate buffer, Welch Xtimate C18, 30 °C, 100% aqueous extrapolation
[9] = pH 9.0, methanol/20 mmol/L ammonium phosphate buffer, Welch Xtimate C18, 30 °C, 100% aqueous extrapolation
[10] = pH 10.0, methanol/20 mmol/L ammonium phosphate buffer, Welch Xtimate C18, 30 °C, 100% aqueous extrapolation
[11] = Table 4, verification compounds

| Structure (SMILES) | logDpH 7.0 [1] | logDpH 8.0 [1] | logDpH 9.0 [1] | logDpH 10.0 [1] | logkw-pH 7.0 ([2]; pH 7) | logkw-pH 8.0 ([2]; pH 8) | logkw-pH 9.0 ([2]; pH 9) | logkw-pH 10.0 ([2]; pH 10) | B [3] | logP ([4]; n-octanol/water) | pKa1 [5] | logkw-pH 7.0 [2, 7] | logkw-pH 8.0 [2, 8] | logkw-pH 9.0 [2, 9] | logkw-pH 10.0 [2, 10] | chromatographic logD ([6]; pH 7) | chromatographic logD ([6]; pH 8) | chromatographic logD ([6]; pH 9) | chromatographic logD ([6]; pH 10) | logP [4, 11] | further results |
| --- | --- | --- | --- | --- | --- | --- | --- | --- | --- | --- | --- | --- | --- | --- | --- | --- | --- | --- | --- | --- | --- |
| Nc1ccc(N)cc1 [1,4-Benzenediamine] | −0.38 | −0.31 | −0.30 | −0.30 | −0.39 | −0.35 | −0.17 | −0.04 | 1.30 | −0.30 | 6.31 | – | – | – | – | – | – | – | – | – | pKa2 [5]: 2.97 |
| c1ccc(-c2ccncc2)cc1 [4-Phenylpyridine] | 2.58 | 2.59 | 2.59 | 2.59 | 2.66 | 2.81 | 2.84 | 2.80 | 1.38 | 2.59 | 5.45 | – | – | – | – | – | – | – | – | – | – |
| Nc1ccc(Br)cc1 [4-Bromoaniline] | 1.74 | 1.74 | 1.74 | 1.74 | – | – | – | – | 1.19 | 2.05 | 3.89 | 1.91 | 1.98 | 1.99 | 1.99 | 1.83 | 1.81 | 1.85 | 1.81 | 2.05 | pKa [5]: 3.89 |
| c1ccc(CNCc2ccccc2)cc1 [Dibenzylamine] | 1.26 | 2.20 | 2.83 | 3.01 | – | – | – | – | 1.30 | 3.03 | 8.76 | 2.42 | 2.99 | 3.28 | 4.54 | 1.52 | 2.36 | 2.81 | 3 | 3.03 | pKa [5]: 8.76 |
